From PMC6566782, “Prodrugs for Skin Delivery of Menahydroquinone-4, an Active Form of Vitamin K2(20), Could Overcome the Photoinstability and Phototoxicity of Vitamin K2(20)” (International Journal of Molecular Sciences, 2019) come the findings set out here.

Data set [1] in a line: Photostability in ethanol under artificial sunlight (12,000 lx), LC-MS/MS. The following applies: 1 µM in ethanol. The format is physicochemical. How it is done: The relative irradiance of artificial sunlight at wavelengths of 300 to 800 nm is almost equal to that of natural sunlight, according to the manufacturer. […] MKH-SUC concentration decreased according to an apparent first order rate both with and without shading, although the rate of decrease was accelerated without shading. MKH-DMG and MKH-SUC were more photostable than MK-4 by ca. 50- and 3-fold, respectively.
Solutions of MK-4 and MKH derivatives in ethanol (1 µM) were irradiated with artificial sunlight (SOLAX 100 W XC-100 B, Seric Ltd., Tokyo, Japan) at 12,000 lx in quartz cells. Illuminance was measured using a digital luminometer (LX-1108, Mother Tool). Irradiation samples (1 µM in ethanol) were irradiated with artificial sunlight at 12,000 lx, and with monochromatic light (279, 341, 373, 404, and 435 nm) using a multi-wavelength irradiation spectrometer (MM 3, Bunkoukeiki Co., Ltd., Tokyo, Japan). Irradiation intensity was measured using an irradiation energy measurement power meter (MM 3, Bunkoukeiki Co., Ltd.).
LC-MS/MS was performed using an LCMS-8050 Liquid Chromatograph Mass Spectrometer (Shimadzu, Kyoto, Japan) and Shimadzu HPLC System (system controller (CBM-20A), pump (LD-20AD), degasser (DGU-20As), UV detector (SPD-20A), and auto injector (SIL-20AC HT)). Separations were performed on a CAPCELL PAK C18 UG120 (3 μm, 2.0 mm × 100 mm, Shiseido Co., Ltd., Tokyo, Japan) using a mobile phase of 10 mmol/L ammonium acetate and 0.1% acetic acid in methanol and water (97:3) at a flow rate of 0.4 mL/min. Column temperature was maintained at 40 °C. The mass spectrometer was equipped with an electrospray ionization and was run in positive ion mode. Identification and quantitation were based on MS/MS-multiple reaction monitoring mode using transition ions as follows: m/z 445 → 187 for the [M+H]^+ MK-4 adduct, m/z 445 → 187 for the [M + H]^+ chromenol adduct, 619 → 58 for the [M + H]^+ MKH-DMG adduct, m/z 532 → 58 for the [M + H]^+ MKH-mono-DMG adduct, m/z 664 → 187 for the [M + H]^+ MKH-SUC adduct, m/z 564 → 187 for the [M + H]^+ MKH-mono-SUC adduct, and m/z 461 → 81 for the [M + H]^+ MKO adduct.

Data set [2] concerns HaCaT cells. Briefly: Intracellular ROS generation assay (DCFH-DA) with or without UVA irradiation. The format is cell-based, Human. As to conditions: UVA irradiation 15 J/cm^2. How it is done: (§1) The in vitro phototoxicity of MK-4 and MKH derivatives were assessed by measuring the intracellular ROS generation and the viability of human epidermal keratinocyte cells (HaCaT) after UVA irradiation in the presence or absence of MK-4 and MKH derivatives. Intracellular ROS generation was determined using the cell permeable probe 2′,7′-dichlorofluorescein diacetate (DCFH-DA), which rapidly reacts with hydroxyl radicals. Cells without drug treatment or UVA irradiation were used as the control. ROS generation and cell viability are shown in Figure 5 and Figure 6, respectively.
Intracellular ROS generation was measured using 2′,7′-dichlorofluorescein diacetate (DCFH-DA; Invitrogen, Carlsbad, CA, USA) as a fluorescent probe. HaCaT cells were seeded at 1.0 × 10^5 cells/well in 96-well plates and cultured overnight. Thereafter, cells were washed with PBS and incubated with 10 µM DCFH-DA solution in PBS at 37 °C for 1 h. Following incubation, test compound solutions in PBS described above were added to each well and re-incubated for 1 h. After incubation, cells were irradiated with UVA at an irradiation intensity of 15 J/cm^2 and the fluorescence intensity (Ex: 485 nm, Em: 530 nm) was measured using an Infinite M200 PRO (Tecan Life Sciences).

In data set [3] the test system is HaCaT cells. As to the kind of experiment: Cell viability assay (CellTiter-Glo) 24 h after UVA irradiation. The format is cell-based, Human. As to conditions: 24 h after UVA irradiation 15 J/cm^2. How it is done:
as §1
HaCaT cells were seeded at 1.0 × 10^5 cells/well in 96-well plates and cultured overnight. Thereafter, cells were washed with PBS, and test compound solutions in PBS described above were added to each well and re-incubated for 1 h. After incubation, cells were irradiated with UVA at an irradiation intensity of 15 J/cm^2. After irradiation, cells were washed twice with PBS and replaced in culture medium. After 24 h incubation, cell viability was measured using a CellTiter-Glo® Luminescent Cell Viability Assay (Promega, Madison, WI, USA).
(In general: ATP-based viability assays read luminescence as a measure of living cells.)

For data set [4], the system named is HaCaT cells. As to the kind of experiment: Intracellular MKO and MK-4 levels after treatment with MK-4 and MKH derivatives (MKH delivery), LC-MS/MS. The format is cell-based, Human. As to conditions: 5 µM compound, intracellular MK-4, mean ± SD (n = 3). On the procedure:
The potential of MKH derivatives and MK-4 as dermal delivery systems of MKH were assessed by measuring intracellular MKH levels. However, accurate measurement of MKH is difficult because MKH is readily oxidized to MK-4. […] Thus, MKO levels in HaCaT cells can reflect the amount of MKH delivered into the cell and subsequently converted in the carboxylation of VKDP. In addition, MK-4 level in cells after MKH prodrugs treatment indicates the oxidative product of MKH. In this study, the intracellular concentration of MKO and MK-4 in HaCaT cells over time after treatment with MK-4, MKH-DMG, or MKH-SUC (5 μM) was determined by LC-MS/MS (Figure 7). HaCaT cells were seeded at 5.0 × 10^4 cells/well in 24-well plates and allowed to attach for 48 h. Cells were cultured in medium containing 5 μM MK-4, MKH-DMG, or MKH-SUC, then medium was removed and cells were washed twice with PBS. Cells were collected in 500 μL of PBS and sonicated. Cell homogenates were combined with an equal volume of methanol and three times volume of n-hexane, vortexed for 2 min, and centrifuged at 1750× g for 10 min. […] The residue was reconstituted with 20 μL of methanol, and subjected to LC-MS/MS, as described below. The protein concentration of the cell homogenate was determined using a BCA protein assay kit (Thermo Fisher Scientific, Waltham, MA, USA). […]

For `CC(C)=CCC/C(C)=C/CC/C(C)=C/CC/C(C)=C/CC1=C(C)C(=O)c2ccccc2C1=O` [MK-4, menaquinone-4, reference compound], in data set [1] (artificial sunlight 12,000 lx, 25 °C), the “apparent first order rate constant (k) of degradation” value worked out at 8.239 h⁻¹. For the same compound, the “concentration change under shading” value in data set [1] (shading, 25 °C) is “unchanged under shading”. Further, in data set [1] (sunlight irradiation (MKH-SUC also under shading)), the main degradation product result is “MK-4 chromenol”. Also, in data set [1] (ethanol solution in quartz cells, artificial sunlight 12,000 lx, 25 °C, read-out: half-life (t1/2) of degradation (converted)), the half-life at 1 µM was 5.04 min. Besides, in the data set with HaCaT cells [2], the “intracellular ROS level” value is on record as “elevated in a dose-dependent manner”. The cell viability result in the data set with HaCaT cells [3] is “decreased dose-dependently”. For the same compound, the “AUCMK-4 (0–72 h)” value with HaCaT cells [4] is recorded as 5.628 ± 0.698 nmol·h/mg of Protein.
